Assay results published in patent US9987371B2 (priority 2013, dated 2018).
“Also recorded” adds a separate entry of the source. Where two headings read alike, the source gives them in different places.

Legend:
B16-F10 cells [1] = type: cell-based
GFP in B16 GFP cells [2] = type: cell-based; conditions: for Able to transfect?: GFP knockdown at 50 nM; for outcome of screening for GFP siRNA delivery: peptide:polynucleotide ratio between 50:1 and 200:1
GFP in B16 GFP cells [3] = type: cell-based
B16 GFP cells = assay: Alamar Blue cell viability of transfected B16 GFP cells; type: cell-based
Procedure: Cell viability was determined 72 hours post transfection using Alamar Blue (Life technologies). Briefly, Alamar Blue was diluted 1:10 into phenol red free medium and incubated with cells for 2-4 hours. Fluorescence was measured on a fluorescent plate reader with excitation at 570 nm and emission at 585 nm (Varian Cary Eclipse, Agilent Technologies, Santa Clara, Calif.).
B16 GFP cells were transfected with increasing concentrations of p5RHH/siRNA nanoparticles containing GFP-specific or scrambled siRNA. For comparison, B16 GFP cells were also transfected with increasing concentrations of GFP specific or scrambled siRNA using lipofectamine 2000. RNA extracted from transfected cells was analyzed using Northern blot analysis, and normalized viability of transfected B16 cells was determined (FIG. 28).

[4] = test system: Rabbit red blood cells (RBC); assay: RBC hemolysis; type: cell-based
Procedure: The lytic capacity of liberated p5RHH can be quantified in vitro with red blood cell (RBC) hemolysis assays. When incubated at decreasing pH, the ability of p5RHH/siRNA nanoparticles to lyse RBC is enhanced, due to the release of free p5RHH at pH ≤5.5 (FIG. 210). These assays were performed at 4° C. to decrease the rate of auto-hemolysis observed at higher temperatures.
Rabbit red blood cells (RBC) were isolated from whole blood by centrifugation and washed in PBS 3× before storage at 4° C. Prior to hemolysis studies, RBC were washed 3× in pH appropriate HBSS and diluted 1 to 5000. RBCs in pH-specific buffer were then incubated with p5RHH/siRNA nanoparticles for 12 hours. The RBC remnants were pelleted by centrifugation and the hemoglobin content of the supernatant was measured by UV absorbance at 550 nm. Absorbance values were then normalized against maximum lysis by p5RHH only controls and presented as the average of 3 separate experiments.

B16-F10 cells [5] = test system: B16-F10 cells
[6] = all tested doses, Hou et al., 2013; cited from earlier work
B16F10 cells [7] = assay: Confocal microscopy of cytoplasmic oligonucleotide release in B16 cells; type: cell-based
B16F10 cells [8] = assay: Acridine orange staining for endosomal/lysosomal disruption; type: cell-based; conditions: 100 nM siRNA, 12 hours
Procedure: Endosomal disruption in living cells was observed by acridine orange staining. Cells were first loaded with acridine orange (10 μM, 15 minutes), which fluoresces red at low pH in the endosome but green at cytoplasmic pH. Endosomal disruption can be visualized by an increase in cytoplasmic green fluorescence in the presence of 100 μM chloroquine (FIG. 21F).
B16F10 cells plated on coverslips are loaded with acridine orange at 10 μM for 15 minutes and washed for 3× in PBS before incubation in the presence of p5RHH/siRNA nanoparticles in 10% DMEM at a final siRNA concentration of 100 nM for 12 hours. Alternatively, cells were exposed to chloroquine (Sigma) at 100 μM for 15 minutes prior to imaging. Live cells were visualized by fluorescence microscopy on an Olympus BX610 (Tokyo, Japan).

[9] = charge ratio (+/−) 6:1 (peptide/siRNA 62:1, 28:1 or 50:1 by peptide)
[10] = charge ratio (+/−) 12:1 (peptide/siRNA 124:1, 56:1 or 100:1 by peptide)
[11] = charge ratio (+/−) 24:1 (peptide/siRNA 248:1, 112:1 or 200:1 by peptide)

Compound: CCN(c1nc(N)c(C(=O)NC(=N)N)nc1Cl)C(C)C [EIPA]
- effect of endocytosis inhibitor on p5RHH/siRNA nanoparticle uptake (B16-F10 cells [1]): dramatically reduces p5RHH/siRNA uptake; also recorded: nearly abolishes nanoparticle uptake

Compound: CC[C@H](C)[C@H](NC(=O)CN)C(=O)NCC(=O)N[C@@H](C)C(=O)N[C@H](C(=O)N[C@@H](CC(C)C)C(=O)N[C@@H](CCCCN)C(=O)N[C@H](C(=O)N[C@@H](CC(C)C)C(=O)N[C@H](C(=O)N[C@H](C(=O)NCC(=O)N[C@@H](CC(C)C)C(=O)N1CCC[C@H]1C(=O)N[C@@H](C)C(=O)N[C@@H](CC(C)C)C(=O)N[C@H](C(=O)N[C@@H](CO)C(=O)N[C@@H](Cc1c[nH]c2ccccc12)C(=O)N[C@H](C(=O)N[C@@H](CCCCN)C(=O)N[C@@H](CCCNC(=N)N)C(=O)N[C@@H](CCCCN)C(=O)N[C@@H](CCCNC(=N)N)C(=O)N[C@@H](CCC(N)=O)C(=O)N[C@@H](CCC(N)=O)C(N)=O)[C@@H](C)CC)[C@@H](C)CC)[C@@H](C)O)[C@@H](C)O)C(C)C)C(C)C [Melittin, reference compound]
- Able to transfect? (GFP in B16 GFP cells [2]; [9]): No
- Able to transfect? (GFP in B16 GFP cells [2]; [10]): Toxic
- Able to transfect? (GFP in B16 GFP cells [2]; [11]): Toxic
- outcome of screening for GFP siRNA delivery (GFP in B16 GFP cells [2]): too toxic

Compound: CO/C1=C\C(C)=C\[C@@H](C)[C@@H](O)[C@@H](C)C/C(C)=C/C=C/[C@H](OC)[C@@H]([C@@H](C)[C@@H](O)[C@H](C)[C@@]2(O)C[C@@H](O)[C@H](C)[C@@H](C(C)C)O2)OC1=O [bafilomycin A1, reference compound]
- effect of bafilomycin A1 on p5RHH mediated GFP knockdown (GFP in B16 GFP cells [2]): near complete loss of GFP knockdown; also recorded: blocks knockdown of GFP
- effect of bafilomycin A1 on p5RHH/siRNA uptake (B16-F10 cells [1]): did not impair p5RHH/siRNA uptake; also recorded: does not inhibit uptake

Compound: CCN(CC)CCCC(C)Nc1ccnc2cc(Cl)ccc12 (centres unmarked) [chloroquine, reference compound]
- effect of chloroquine on p5RHH mediated GFP knockdown (GFP in B16 GFP cells [3]): does not improve knockdown

Compound: CCCCC[C@@H](O)[C@H]1C(=O)O[C@H](C)[C@@H](O)/C=C/C=C/C=C/C=C/C=C(\C)[C@@H](O)C[C@H](O)C[C@H](O)C[C@H](O)C[C@H](O)C[C@H](O)C[C@@H]1O [filipin]
- effect of endocytosis inhibitor on p5RHH/siRNA nanoparticle uptake (B16-F10 cells [1]): no effect; also recorded: do not inhibit

Compound: CC[C@H](C)[C@H](NC(=O)[C@H](CC(C)C)NC(=O)[C@H](C)NC(=O)[C@@H]1CCCN1C(=O)[C@H](CC(C)C)NC(=O)CNC(=O)[C@@H](NC(=O)[C@@H](NC(=O)[C@H](CC(C)C)NC(=O)[C@@H](N)C(C)C)[C@@H](C)O)[C@@H](C)O)C(=O)N[C@@H](CO)C(=O)N[C@@H](Cc1c[nH]c2ccccc12)C(=O)N[C@H](C(=O)N[C@@H](CCCNC(=N)N)C(=O)N[C@@H](CCCNC(=N)N)C(=O)N[C@@H](CCCNC(=N)N)C(=O)N[C@@H](Cc1c[nH]cn1)C(=O)N[C@@H](CCCNC(=N)N)C(=O)N[C@@H](CCCNC(=N)N)C(=O)N[C@@H](Cc1c[nH]cn1)C(=O)N[C@@H](CS)C(=O)O)[C@@H](C)CC [p5RHH]
- cytotoxicity at p5RHH:siRNA ratios up to 200:1 (B16 GFP cells; Alamar blue, 50 nM siRNA): no sign of cytotoxicity
- decrease in cell viability (B16 GFP cells; highest concentrations tested): ~3%
- toxicity by Alamar blue (B16 GFP cells; siRNA concentrations up to 200 nM): minimal toxicity
- IC50 ([4]; free peptide, normalized to 0.1% Triton-X, read-out: IC50 of RBC lysis): 200 to 400 µM
- pH at which hemolysis / hemoglobin release is increased ([4]; p5RHH/siRNA nanoparticles, 4° C.): ≤ 5.5
- nonspecific cytotoxicity (B16 viability) (B16-F10 cells [5]): no effect on B16 viability
- decreased B16-F10 viability (B16-F10 cells [5]; mouse): 60%
- cytotoxicity towards HUVEC cells (HUVEC cells): no cytotoxicity
- cytotoxicity in RAW264.7 cells (RAW264.7 cells): without cytotoxicity
- decrease in cell viability (RAW264.7 cells): ~5%
- cytotoxicity [6]: without significant cytotoxicity

Compound: VLKVLTTLAPALISWIRRRHRRC [p5RH-LL]
- Able to transfect? (GFP in B16 GFP cells [2]; [9]): No
- Able to transfect? (GFP in B16 GFP cells [2]; [10]): Yes
- Able to transfect? (GFP in B16 GFP cells [2]; [11]): No
- outcome of screening for GFP siRNA delivery (GFP in B16 GFP cells [2]): able to transfect

Compound: VLTTGLPALISWIKRKRQQC [Peptide 5C]
- Able to transfect? (GFP in B16 GFP cells [2]; [9]): No
- Able to transfect? (GFP in B16 GFP cells [2]; [10]): No
- Able to transfect? (GFP in B16 GFP cells [2]; [11]): No

Compound: VLTTGLPALISWIKRKRQQRWRRRR [p5RWR]
- Able to transfect? (GFP in B16 GFP cells [2]; [9]): No
- Able to transfect? (GFP in B16 GFP cells [2]; [10]): No
- Able to transfect? (GFP in B16 GFP cells [2]; [11]): No
- siRNA transfection ability (GFP knockdown) (GFP in B16 GFP cells [2]; flow cytometry, without / with 50 μM chloroquine): unable to initiate GFP knockdown without the aid of chloroquine; also recorded: no siRNA transfection ability
- GFP knockdown by western blotting (GFP in B16 GFP cells [3]): unable to induce GFP knockdown even in the presence of chloroquine
- oligonucleotide release into the cytoplasm (B16F10 cells [7]): do not reach the cytoplasm; also recorded: does not manifest appreciable oligonucleotide release into the cytoplasm
- endosomal disruption (acridine orange release) (B16F10 cells [8]): cannot

Compound: VLTTGLPALISWIRRRHRRC [p5RH]
- Able to transfect? (GFP in B16 GFP cells [2]; [9]): No
- Able to transfect? (GFP in B16 GFP cells [2]; [10]): Yes
- Able to transfect? (GFP in B16 GFP cells [2]; [11]): No
- outcome of screening for GFP siRNA delivery (GFP in B16 GFP cells [2]): able to transfect
